Measured values taken from US11512268B2, “Storage-stable enzyme preparations, their production and use” (BASF SE, priority 2017, dated 2022).

What was measured:
Lipolase = target: T1, Lipolase (Thermomyces lanuginosus, UniProt O59952); test: storage stability of lipase (Lipolase activity, pNitrophenol-valerate substrate) in liquid formulations at 37° C.; type: biochemical, Thermomyces lanuginosa; details: component (a) 2.5 wt %, Lipolase 0.4 wt %, storage at 37° C.
T1 construct: purchased Sigma-Aldrich
T1 sequence (O59952 23-291): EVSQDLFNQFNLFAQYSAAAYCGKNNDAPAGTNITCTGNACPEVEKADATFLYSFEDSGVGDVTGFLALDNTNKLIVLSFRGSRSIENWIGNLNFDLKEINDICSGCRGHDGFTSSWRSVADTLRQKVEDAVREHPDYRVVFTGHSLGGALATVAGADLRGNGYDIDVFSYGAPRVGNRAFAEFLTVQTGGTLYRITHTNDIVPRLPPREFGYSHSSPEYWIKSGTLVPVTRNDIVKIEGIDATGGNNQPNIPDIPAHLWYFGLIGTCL
Procedure: (§1) The storage stability of Lipase and Protease in water was assessed at 37° C.
(§2) Base test formulations were manufactured by making base formulations I to VI by mixing the components according to Table 1.
(§3) The respective salt (component (a)) or comparative compound was added, if applicable, to the respective base formulation in amounts as indicated in Table 1.
(§4) The amount of enzyme as provided in Table 1 refers to active protein. Either lipase or protease was added, depending on which enzyme activity was measured.
(§5) Lipolase® 100 L (CAS-No. 9001-62-1, EC-No. 232-619-9) was purchased from Sigma-Aldrich. Savinase® 16.0 L (CAS-No. 9014-01-1, EC-No. 232-752-2) was purchased from Sigma-Aldrich.
Lipolase activity at certain points in time as indicated in Table 2 was be determined by employing pNitrophenol-valerate (2.4 mM pNP-C5 in 100 mM Tris pH 8.0, 0.01% Triton X100) as a substrate. The absorption was measured at 20° C. every 30 seconds over 5 minutes at 405 nm. The slope (absorbance increase at 405 nm per minute) of the time dependent absorption-curve is directly proportional to the activity of the lipase.
The lipolytic activity values provided in Table 2 were calculated referring to the 100% value determined in the reference formulation at the time 0.
(§6) The nomenclature of formulations is as follows: the Roman number before the full stop characterizes the base formulation, the Arabian number the type of salt (A.# inventive salt (component (a)); C-(A.#) comparative compound). Zero (“0”): no salt, but diethylene glycol.

Savinase = target: T2, Savinase (Lederbergia lenta, UniProt P29600); test: storage stability of protease (Savinase activity, Suc-AAPF-pNA substrate) in liquid formulations at 37° C.; type: biochemical; details: base formulation III., component (a) 2.5 wt %, Savinase 16.0 L 0.5 wt %, storage at 37° C.
T2 construct: purchased Sigma-Aldrich
T2 sequence (P29600 1-269): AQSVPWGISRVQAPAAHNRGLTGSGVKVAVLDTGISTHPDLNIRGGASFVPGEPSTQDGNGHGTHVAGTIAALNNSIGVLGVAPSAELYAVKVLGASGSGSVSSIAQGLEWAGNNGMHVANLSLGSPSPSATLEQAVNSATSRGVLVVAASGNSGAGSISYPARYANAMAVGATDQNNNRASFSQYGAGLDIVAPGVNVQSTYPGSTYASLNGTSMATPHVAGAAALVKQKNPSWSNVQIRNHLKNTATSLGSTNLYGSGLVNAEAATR
Procedure: as §1, §2, §3, §4, §5
Savinase activity at certain points in time as indicated in Table 3 was be determined by employing Succinyl-Ala-Ala-Pro-Phe-p-nitroanilide (Suc-AAPF-pNA, short AAPF) as substrate. pNA is cleaved from the substrate molecule by proteolytic cleavage, resulting in release of yellow color of free pNA which was determined by measuring OD405. Measurement were done at 20° C.
The proteolytic activity values provided in Table 3 were calculated referring to the 100% value determined in the reference formulation at the time 0.
as §6

| Structure (SMILES) | lipase activity (Lipolase; base formulation III., 1 d) [%] | lipase activity (Lipolase; base formulation III., 3 d) [%] | lipase activity (Lipolase; base formulation III., 6 d) [%] | lipase activity (Lipolase; base formulation III., 10 d) [%] | lipase activity (Lipolase; base formulation III., 15 d) [%] | lipase activity (Lipolase; base formulation III., 20 d) [%] | lipase activity (Lipolase; base formulation III., 25 d) [%] | lipase activity (Lipolase; base formulation III., 30 d) [%] | lipase activity (Lipolase; base formulation III., T0) [%] | lipase activity (Lipolase; base formulation II., 1 d) [%] | lipase activity (Lipolase; base formulation II., 3 d) [%] | lipase activity (Lipolase; base formulation II., 6 d) [%] | lipase activity (Lipolase; base formulation II., 10 d) [%] | lipase activity (Lipolase; base formulation II., 15 d) [%] | lipase activity (Lipolase; base formulation II., 20 d) [%] | lipase activity (Lipolase; base formulation II., 25 d) [%] | lipase activity (Lipolase; base formulation II., 30 d) [%] | other results |
| --- | --- | --- | --- | --- | --- | --- | --- | --- | --- | --- | --- | --- | --- | --- | --- | --- | --- | --- |
| O=C([O-])CC(O)(CC(=O)[O-])C(=O)O.[Na+].[Na+] [C-(A.21), disodium salt of citric acid] | 93 | 78 | 68 | 50 | 39 | 31 | 25 | 20 | 101 |  |  |  |  |  |  |  |  |  |
| O=C([O-])CC(O)(CC(=O)O)C(=O)O.[Na+] [C-(A.20), monosodium salt of citric acid] | 92 | 79 | 70 | 51 | 39 | 30 | 22 | 16 | 100 |  |  |  |  |  |  |  |  |  |
| O=C([O-])CC(O)(CC(=O)[O-])C(=O)[O-].[Na+].[Na+].[Na+] [C-(A.22), trisodium salt of citric acid] | 92 | 76 | 66 | 48 | 37 | 28 | 23 | 19 | 98 | 87 | 79 | 67 | 55 | 40 | 33 | 24 | 18 | lipase activity (Lipolase; base formulation II., T0): 95% |
| CC(=O)OCC[N+](C)(C)C [(A.12), Acetylcholine] | 98 | 97 | 95 | 91 | 86 | 80 | 78 | 74 |  | 98 | 96 | 95 | 88 | 86 | 80 | 77 | 76 | protease activity (Savinase; 1 d): 96%; protease activity (Savinase; 3 d): 92%; protease activity (Savinase; 6 d): 80%; protease activity (Savinase; 10 d): 70%; protease activity (Savinase; 15 d): 61%; protease activity (Savinase; 20 d): 50%; protease activity (Savinase; 25 d): 39%; protease activity (Savinase; 30 d): 31%; protease activity (Savinase; T0): 96% |
